Values joined by “and” are separate entries in the source; they are usually repeats but may differ in a detail not shown here. Equal values may be shown once. Read-outs that look alike come from different tables or passages of the source.
What was measured:
[1] = tested on: Klebsiella pneumoniae ATCC 13883 (GN_003 / GN_004); assay: Synergy of cannabidiol with cell-wall disrupting agent (CBD MIC in combination, FICI); format: cell-based; conditions: for FICI: calculated using MIC of 256 μg/mL for cannabidiol; for MIC: Klebsiella pneumoniae
Protocol: (§1) The compounds were stored short term at 4° C.
(§2) Analysis was performed using Microsoft Excel.

[2] = tested on: Klebsiella pneumoniae BAA-2146 (GN_045), NDM-1; assay: as above; format: cell-based; conditions: for MIC: Klebsiella pneumoniae
Protocol: as §1, §2

## C=C(C)C1CCC(C)=CC1c1c(O)cc(CCCCC)cc1O (stereo not drawn) [Cannabidiol, 2-[3-methyl-6-(1-methylethenyl)-2-cyclohexen-1-yl]-5-pentyl-1,3-benzenediol]
[1]; Example 12
  activity of cannabidiol combined with cefuroxime: effective
[1]; Example 14
  activity of cannabidiol combined with colistin: effective
[1]; Example 15
  activity of cannabidiol combined with octapeptin MCC_006442: effective
[1]; Example 16
  activity of cannabidiol combined with ceftazidime: effective
[1]; Example 17
  activity of cannabidiol combined with cefotetan: effective
[1]; Example 18
  activity of cannabidiol combined with aztreonam: effective
[1]; Example 21
  activity of cannabidiol combined with octapeptin C4: effective
[1]; Example 22
  activity of cannabidiol in combination with Spero Potentiator SPR741: effective
[1]; Example 23
  activity of cannabidiol in combination with octapeptin FADDI-287: effective
[1]; Example 24
  activity of cannabidiol in combination with MCC_8980: effective
[1]; Klebsiella pneumoniae ATCC 700603 (so in the source), CBD with FADDI-287, MIC table (Table 95)
  FICI range: 0.16-4
[1]; Klebsiella pneumoniae ATCC 700603 (so in the source), CBD with FADDI-287, Synergy table (Table 97)
  FICI range: 0.16-0.5
[1]; Klebsiella pneumoniae ATCC 700603 (so in the source), CBD with MCC_8980, MIC table (Table 99), listed as CBD
  FICI range: 0.31-1.13 and 0.38-1.13
[1]; Klebsiella pneumoniae ATCC 700603 (so in the source), CBD with MCC_8980, Synergy table (Table 101), listed as CBD
  FICI range: 0.31 and 0.38
[1]; Klebsiella pneumoniae ATCC 700603 (so in the source), CBD with Spero Potentiator SPR741, MIC table (Table 91), listed as CBD
  FICI range: 0.08-1.03 and 0.09-1.03 and 0.16-1.06 and 0.14-1.06
[1]; Klebsiella pneumoniae ATCC 700603 (so in the source), CBD with Spero Potentiator SPR741, Synergy table (Table 93), listed as CBD
  FICI range: 0.08-0.27 and 0.09-0.27 and 0.16-0.27 and 0.14-0.26
[1]; Klebsiella pneumoniae ATCC 700603 (so in the source), MCC_8980 at 16 μg/mL, listed as CBD
  CBD MIC with MCC_8980: 32 µg/mL
[1]; Klebsiella pneumoniae ATCC 700603 (so in the source), SPR741 at 8 μg/mL, listed as CBD
  CBD MIC with Spero Potentiator SPR741: 4 µg/mL and 8 µg/mL
[1]; Klebsiella pneumoniae ATCC 700603 (so in the source), cannabidiol with FADDI-287 at 0.25 μg/mL
  FICI: 0.2539
[1]; Klebsiella pneumoniae ATCC 700603 (so in the source), cannabidiol with FADDI-287 at 0.5 μg/mL
  FICI: 0.5
[1]; Klebsiella pneumoniae ATCC 700603 (so in the source), cannabidiol with FADDI-287 at 1 μg/mL
  FICI: 1
[1]; Klebsiella pneumoniae ATCC 700603 (so in the source), cannabidiol with FADDI-287 at 2 μg/mL
  FICI: 2
[1]; Klebsiella pneumoniae ATCC 700603 (so in the source), cannabidiol with FADDI-287 at 4 μg/mL
  FICI: 4
[1]; Klebsiella pneumoniae ATCC 700603 (so in the source), cannabidiol with MCC_8980 at 1 μg/mL
  FICI: 1.016
[1]; Klebsiella pneumoniae ATCC 700603 (so in the source), cannabidiol with MCC_8980 at 2 μg/mL
  FICI: 1.031
[1]; Klebsiella pneumoniae ATCC 700603 (so in the source), cannabidiol with MCC_8980 at 4 μg/mL
  FICI: 1.0625
[1]; Klebsiella pneumoniae ATCC 700603 (so in the source), cannabidiol with MCC_8980 at 8 μg/mL
  FICI: 1.125
[1]; Klebsiella pneumoniae ATCC 700603 (so in the source), cannabidiol with MCC_8980 at 16 μg/mL
  FICI: 0.375 and 0.3125
[1]; Klebsiella pneumoniae ATCC 700603 (so in the source), cannabidiol with SPR741 at 0.5 μg/mL
  FICI: 1.004
[1]; Klebsiella pneumoniae ATCC 700603 (so in the source), cannabidiol with SPR741 at 1 μg/mL
  FICI: 1.016
[1]; Klebsiella pneumoniae ATCC 700603 (so in the source), cannabidiol with SPR741 at 2 μg/mL
  FICI: 1.031
[1]; Klebsiella pneumoniae ATCC 700603 (so in the source), cannabidiol with SPR741 at 2 μg/mL, listed as cannabidiol
  FICI: 1.016
[1]; Klebsiella pneumoniae ATCC 700603 (so in the source), cannabidiol with SPR741 at 4 μg/mL
  FICI: 1.031 and 1.0625
[1]; Klebsiella pneumoniae ATCC 700603 (so in the source), cannabidiol with SPR741 at 8 μg/mL
  FICI: 0.09375 and 0.1406 and 0.07812
[1]; ATCC13883, read-out: CBD MIC with octapeptin MCC_006442 at concentration 2 μg/mL, Example 4, GN_003
  MIC: 1 µg/mL
[1]; ATCC13883, read-out: CBD MIC with octapeptin MCC_006442 at concentration 4 μg/mL, Example 4, GN_003
  MIC: 0.25 µg/mL
[1]; ATCC 13883 / ATCC 700603, Klebsiella pneumoniae ATCC 700603 (so in the source), FADDI-287 at 0.25 μg/mL, read-out: CBD MIC with FADDI-287
  MIC: 1 µg/mL
[1]; ATCC 13883 / ATCC 700603, Klebsiella pneumoniae ATCC 700603 (so in the source), FADDI-287 at 0.5 μg/mL, read-out: CBD MIC with FADDI-287
  MIC: 0.001 µg/mL
[1]; ATCC 13883 / ATCC 700603, Klebsiella pneumoniae ATCC 700603 (so in the source), FADDI-287 at 1 μg/mL, read-out: CBD MIC with FADDI-287
  MIC: 0.001 µg/mL
[1]; ATCC 13883 / ATCC 700603, Klebsiella pneumoniae ATCC 700603 (so in the source), FADDI-287 at 2 μg/mL, read-out: CBD MIC with FADDI-287
  MIC: 0.001 µg/mL
[1]; ATCC 13883 / ATCC 700603, Klebsiella pneumoniae ATCC 700603 (so in the source), FADDI-287 at 4 μg/mL, read-out: CBD MIC with FADDI-287
  MIC: 0.001 µg/mL
[1]; ATCC 13883 / ATCC 700603, Klebsiella pneumoniae ATCC 700603 (so in the source), MCC_8980 at 16 μg/mL, read-out: CBD MIC with MCC_8980
  MIC: 16 µg/mL
[1]; ATCC 13883 / ATCC 700603, Klebsiella pneumoniae ATCC 700603 (so in the source), Spero SPR206 at 0.007 μg/mL, read-out: CBD MIC with Spero SPR206
  MIC: ≥ 32 µg/mL
[1]; ATCC 13883 / ATCC 700603, Klebsiella pneumoniae ATCC 700603 (so in the source), Spero SPR206 at 0.015 μg/mL, read-out: CBD MIC with Spero SPR206
  MIC: ≥ 32 µg/mL
[1]; ATCC 13883 / ATCC 700603, Klebsiella pneumoniae ATCC 700603 (so in the source), Spero SPR206 at 0.031 μg/mL, read-out: CBD MIC with Spero SPR206
  MIC: ≥ 32 µg/mL
[1]; ATCC 13883 / ATCC 700603, Klebsiella pneumoniae ATCC 700603 (so in the source), Spero SPR206 at 0.062 μg/mL, read-out: CBD MIC with Spero SPR206
  MIC: ≥ 32 µg/mL
[1]; ATCC 13883 / ATCC 700603, Klebsiella pneumoniae ATCC 700603 (so in the source), Spero SPR206 at 4 μg/mL, read-out: CBD MIC with Spero SPR206
  MIC: 0.001 µg/mL
[1]; ATCC 13883 / ATCC 700603, MCC_6442 at 2 μg/mL, Klebsiella pneumoniae ATCC 700603, read-out: CBD MIC with MCC_6442
  MIC: 1 µg/mL
[1]; ATCC 13883 / ATCC 700603, MCC_6442 at 4 μg/mL, Klebsiella pneumoniae ATCC 700603, read-out: CBD MIC with MCC_6442
  MIC: 0.25 µg/mL
[1]; ATCC13883 / ATCC700603, read-out: CBD MIC with FADDI-287, Klebsiella pneumoniae ATCC 700603 (so in the source), FADDI-287 at […]
  MIC: 8 µg/mL
[2]; Example 9
  cannabidiol in combination with MCC_09222: synergy: synergistic effect
[2]; Example 9, GN_045, listed as CBD
  CBD MIC with MCC_09222 at concentration 16 μg/mL: 2 µg/mL
[2]; BAA2146, read-out: CBD MIC with MCC_09222 at concentration 8 μg/mL, Example 9, GN_045
  MIC: 16 µg/mL
[2]; BAA2146, read-out: CBD MIC with MCC_09222 at concentration 16 μg/mL, Example 9, GN_045
  MIC: 4 µg/mL
[2]; BAA2146, read-out: CBD MIC with MCC_09222 at concentration 32 μg/mL, Example 9, GN_045
  MIC: 2 µg/mL
[2]; BAA2146, read-out: CBD MIC with MCC_09222 at concentration 64 μg/mL, Example 9, GN_045
  MIC: 2 µg/mL
[2]; BAA2146, read-out: CBD MIC with MCC_09222 at concentration 128 μg/mL, Example 9, GN_045
  MIC: 0.000977 µg/mL
